Measurements published in patent US9610322B2, “Macrocyclic insulin-degrading enzyme (IDE) inhibitors and uses thereof” (President and Fellows of Harvard College, priority 2011, dated 2017).
One block for each compound: values may come before it.

What was measured:
recombinant human IDE = recombinant human IDE (Homo sapiens (Human), UniProt P14735); assay: IDE protease assay, cleavage of fluorophore-quencher substrate peptide; format: biochemical; conditions: for stronger potency of trans-olefin isomer than corresponding cis-olefin isomer: trans vs cis olefin
Procedure: In vitro protease assays: Protease assays with IDE and neprilysin were performed using Mca-RPPGFSAFK(Dnp)-OH substrate peptide (R&D Systems, SEQ ID NO: 6) and purified recombinant human IDE and recombinant human neprilysin (R&D Systems) according to the manufacturer's instructions. For IDE, 2 μL of small molecule dissolved in DMSO was combined with 48 μL, 0.2 μg/mL IDE in IDE assay buffer (50 mM Tris, 1 M NaCl, pH 7.5). 50 μL, of 20 μM substrate peptide in IDE assay buffer was then added to initiate the reaction, and peptide cleavage was monitored on a fluorescent plate reader (excitation=320 nm; emission=405 nm) for 5 minutes. The above protocol was also used for assaying neprilysin activity, substituting the neprilysin assay buffer (50 mM Tris, 0.05% Brij-35, pH 9.0).
Compounds were synthesized as described previously;^9 in most cases the macrocycle synthesis yielded two isomers corresponding to the cis and trans olefins generated after macrocyclization. Macrocycles were assayed for IDE inhibition by monitoring cleavage of a substrate peptide^13 containing a fluorophore-quencher pair such that cleavage of the model substrate results in increased fluorescence.

[1] = Biodistribution assay after IP injection, LC-MS of organ extracts; format: in vivo, mouse; conditions: mice, intraperitoneal injection, 45 minutes
Procedure: Macrocycles were diluted to 0.1 mg/mL or 1 mg/mL in PBS and IP-injected into a mouse to produce a concentration of 1 mg/kg or 10 mg/kg, respectively. After 45 minutes, organs were harvested, and the small-molecule fractions were extracted into a 2:1:1 mixture of chloroform:methanol:water. Samples were evaporated under a stream of nitrogen, resuspended in 100 μL of chloroform and subjected to LC-MS analysis.
The tissue distribution of enriched macrocycles after i.p. injection was examined. […] Briefly, compounds were injected at different concentrations intraperitoneally into mice, and plasma, brain, and pancreas were harvested after 45 minutes. Vehicle-only injections were performed as negative controls. We determined the relative amount of macrocycle present by extracting the organs with organic solvents and quantifying the amount of compound present by LC-MS analysis.

[2] = Preliminary pharmacokinetics after i.p. injection, LC-MS quantitation; conditions: mice
plasma IDE activity = assay: Plasma IDE activity in mice injected with inhibitor; format: in vivo
Procedure: Finally, we compared plasma IDE activity in mice injected with 6b with plasma IDE activity in control mice injected with vehicle alone (18:1:1, saline:DMSO:Tween-80). Plasma IDE activity 60 min after 10 mg/kg, 20 mg/kg, or 40 mg/kg i.p. injection of 6b was inhibited by ≧90% (FIG. 9).

[3] = previous indications; cited from earlier work

Sequence of recombinant human IDE (P14735 whole entry): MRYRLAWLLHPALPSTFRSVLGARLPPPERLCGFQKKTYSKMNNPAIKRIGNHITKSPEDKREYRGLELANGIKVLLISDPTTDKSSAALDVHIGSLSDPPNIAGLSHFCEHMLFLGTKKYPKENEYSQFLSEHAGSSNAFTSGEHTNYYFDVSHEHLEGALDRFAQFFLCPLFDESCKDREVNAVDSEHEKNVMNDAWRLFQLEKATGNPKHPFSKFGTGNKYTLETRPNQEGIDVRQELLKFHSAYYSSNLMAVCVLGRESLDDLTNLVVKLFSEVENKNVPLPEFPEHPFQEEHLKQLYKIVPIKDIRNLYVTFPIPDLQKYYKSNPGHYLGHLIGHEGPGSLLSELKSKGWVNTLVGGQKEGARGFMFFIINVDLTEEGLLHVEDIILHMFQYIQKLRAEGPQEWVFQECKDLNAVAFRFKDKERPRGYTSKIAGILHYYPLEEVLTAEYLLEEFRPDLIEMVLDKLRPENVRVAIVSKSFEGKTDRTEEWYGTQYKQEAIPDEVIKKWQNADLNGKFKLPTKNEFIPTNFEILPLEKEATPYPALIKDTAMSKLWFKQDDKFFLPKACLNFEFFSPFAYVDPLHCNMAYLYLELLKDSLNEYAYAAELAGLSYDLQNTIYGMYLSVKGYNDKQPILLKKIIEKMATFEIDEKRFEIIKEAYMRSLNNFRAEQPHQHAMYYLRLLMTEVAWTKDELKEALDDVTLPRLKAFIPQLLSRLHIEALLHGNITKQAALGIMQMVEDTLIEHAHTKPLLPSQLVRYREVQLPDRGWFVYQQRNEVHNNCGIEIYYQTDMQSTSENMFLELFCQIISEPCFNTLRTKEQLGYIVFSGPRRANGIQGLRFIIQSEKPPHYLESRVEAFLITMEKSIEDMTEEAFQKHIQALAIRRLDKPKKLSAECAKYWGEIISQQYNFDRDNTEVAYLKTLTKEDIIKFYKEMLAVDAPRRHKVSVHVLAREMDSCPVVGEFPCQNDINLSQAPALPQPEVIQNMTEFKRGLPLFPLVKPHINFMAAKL

SMILES: NC(=O)C1CCCCNC(=O)C(Cc2ccc(C(=O)c3ccccc3)cc2)NC(=O)C(CC2CCCCC2)NC(=O)CC(O)C(CC2CCCCC2)NC(=O)C=CC(=O)N1 (mixture of isomers) [Compound 3]
- stronger potency of trans-olefin isomer than corresponding cis-olefin isomer (recombinant human IDE): > 10 fold

SMILES: NC(=O)CCC1NC(=O)C=CC(=O)NC(C(N)=O)CCCCNC(=O)C(Cc2ccc(C(=O)c3ccccc3)cc2)NC(=O)C(CC2CCCCC2)NC1=O (mixture of isomers) [Compound 6]
- stronger potency of trans-olefin isomer than corresponding cis-olefin isomer (recombinant human IDE): > 10 fold

SMILES: NC(=O)CCC1NC(=O)C=CC(=O)NC(C(N)=O)CCCCNC(=O)C(Cc2ccc(C(=O)c3ccccc3)cc2)NC(=O)C(CC2CCCCC2)NC1=O (stereo not shown) [Compound 6b]
- detection in brain [1]: none of the three compounds could be detected in the brain
- detection in pancreas [1]: could be detected
- detection in plasma [1]: could be detected
- macrocycle concentrations in the plasma compared among compounds [1]: comparable
- peak blood concentration ([2]; i.p. 20 mg/kg): 0.2 µM
- time of peak blood concentration ([2]; i.p. 20 mg/kg): 60 min
- tolerability of injections ([2]; i.p. 20 mg/kg in 18:1:1 saline:DMSO:Tween-80): well tolerated
- inhibition of plasma IDE activity (plasma IDE activity; 60 min after 10 mg/kg i.p.): ≥ 90%
- inhibition of plasma IDE activity (plasma IDE activity; 60 min after 20 mg/kg i.p.): ≥ 90%
- inhibition of plasma IDE activity (plasma IDE activity; 60 min after 40 mg/kg i.p.): ≥ 90%

SMILES: N=C(N)NCCC[C@H](NC(=O)[C@@H](CC(=O)NO)Cc1ccc2ccccc2c1)C(=O)N[C@@H](Cc1c[nH]c2ccccc12)C(=O)N[C@@H](CCC(=O)O)C(N)=O [Ii1]
- stability under physiological conditions [3]: not sufficiently stable under physiological conditions

Second part, the compound after the results:

- stronger potency of trans-olefin isomer than corresponding cis-olefin isomer (recombinant human IDE): > 10 fold
SMILES: NC(=O)C1CCCCNC(=O)C(Cc2ccc(C(=O)c3ccccc3)cc2)NC(=O)C(CC2CCCCC2)NC(=O)C(CC2CC2)NC(=O)C=CC(=O)N1 (mixture of isomers) [Compound 5]

- activity against IDE in words (recombinant human IDE): inactive
SMILES: NC(=O)CCC1NC(=O)C=CC(=O)NC(C(N)=O)CCCCNC(=O)CNC(=O)C(CC2CCCCC2)NC1=O (stereo not shown) [Compound 1]

- effect of modification on IDE inhibitor potency relative to 6b, in words (recombinant human IDE; derivatives of 6b): equipotent
SMILES: NCCCC[C@@H]1NC(=O)/C=C/C(=O)NC(C(N)=O)CCCCNC(=O)[C@@H](Cc2ccc(C(=O)c3ccccc3)cc2)NC(=O)[C@H](CC2CCCCC2)NC1=O (stereo partly shown) [Compound 20]
